In PubChem BioAssay (NCI):
Values joined by “and” are separate entries in the source; they are usually repeats but may differ in a detail not shown here. Equal entries are not always repeated.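 Briefly, cells in 96-well plates were exposed to five compound concentrations for 48 h, and endpoints were estimated by linear interpolation. The concentration for 50% growth inhibition is given as GI50. Definition used: TGI = concentration required for complete inhibition of growth.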

Tests used:
Test in all cases: inhibition of tumour cell growth, NCI panel, 48 h
UACC-257 melanoma = system: UACC-257 melanoma
U251 CNS = system: U251 CNS
MCF7 breast = system: MCF7 breast
HS 578T breast = system: HS 578T breast
K-562 leukemia = system: K-562 leukemia
MDA-MB-435 = system: MDA-MB-435
MALME-3M melanoma = system: MALME-3M melanoma
OVCAR-5 ovarian = system: OVCAR-5 ovarian
OVCAR-4 ovarian = system: OVCAR-4 ovarian
M14 melanoma = system: M14 melanoma

SMILES	GI50 (UACC-257 melanoma)	TGI (UACC-257 melanoma)	GI50 (U251 CNS)	TGI (U251 CNS)	GI50 (MCF7 breast)	TGI (MCF7 breast)	GI50 (HS 578T breast)	TGI (HS 578T breast)	GI50 (K-562 leukemia)	TGI (K-562 leukemia)	GI50 (MDA-MB-435)	TGI (MDA-MB-435)	GI50 (MALME-3M melanoma)	TGI (MALME-3M melanoma)	GI50 (OVCAR-5 ovarian)	TGI (OVCAR-5 ovarian)	GI50 (OVCAR-4 ovarian)	TGI (OVCAR-4 ovarian)	GI50 (M14 melanoma)	TGI (M14 melanoma)
COc1ccc2nc(NC(=O)c3cccnc3Nc3cc(OC)c(OC)c(OC)c3)sc2c1	14.6 µM	29.6 µM	7.1 µM	21.7 µM	0.515 µM	13.6 µM	5.77 µM	30.9 µM	8.91 µM	> 100 µM	1.85 µM	10.4 µM	10.1 µM	24.6 µM	14.5 µM	29 µM	15 µM	32.6 µM	10.5 µM	29.6 µM
COc1cc2c3c(n(CCCN=[N+]=[N-])c(=O)c2cc1OC)-c1ccc(N(C)C)cc1C3=O	> 100 µM	> 100 µM	> 100 µM	> 100 µM	> 100 µM	> 100 µM	> 100 µM	> 100 µM	> 100 µM	> 100 µM	> 100 µM	> 100 µM	> 100 µM	> 100 µM	> 100 µM	> 100 µM	> 100 µM	> 100 µM	> 100 µM	> 100 µM
O=S(=O)(NCCNc1nccc(-c2c(-c3ccc(F)cc3)nc3sccn23)n1)c1ccccc1	10.6 µM	72.8 µM	6.45 µM	26.9 µM	0.722 µM	> 100 µM	13.6 µM	> 100 µM	4.35 µM	> 100 µM	2.56 µM	> 100 µM	5.82 µM	51.1 µM	81.1 µM	> 100 µM	5.6 µM	> 100 µM	4.94 µM	> 100 µM
C=CS(=O)(=O)CCN1CC1		> 10 µM		> 10 µM		> 10 µM		> 10 µM		> 10 µM		> 10 µM		> 10 µM		> 10 µM		> 10 µM		> 10 µM
[Cl][Cd][Cl]	22 µM and 27 µM	56.2 µM and 74.9 µM	14.7 µM and 13.6 µM	20.3 µM and 40.1 µM	9.11 µM	19.2 µM	10.1 µM	57.4 µM	2.01 µM and 20 µM and 14.8 µM	51.3 µM and 147 µM	8.26 µM	30.9 µM	5.5 µM and > 34.7 µM and 3.68 µM	> 49.4 µM and 9.41 µM	> 61.9 µM and 99.2 µM	98.4 µM and 179 µM	7.95 µM and 19.6 µM and 8.69 µM	36.1 µM and 23.7 µM	43.4 µM and 62.3 µM	> 76.9 µM and 161 µM
O=C(Nc1ccc(I)cc1F)c1cc(Cl)ccc1O	0.467 µM	3.99 µM	0.59 µM	> 100 µM	0.552 µM	> 19.8 µM	0.325 µM	3.19 µM	0.429 µM	> 100 µM	0.583 µM	4.9 µM	0.346 µM	1.83 µM	3.55 µM	> 100 µM	0.356 µM	6.4 µM	0.407 µM	4.72 µM
Oc1ccc(Cl)cc1CNc1nc2ccccc2[nH]1	14.7 µM	29.4 µM	11.7 µM	24.5 µM	10.4 µM	33.1 µM	13.6 µM	42.1 µM	15.4 µM	56 µM	13.2 µM	26.2 µM	13.8 µM	32.9 µM	17.8 µM	34.4 µM	11.4 µM	37.5 µM		
NCCSCCc1ccccc1		> 100 µM		> 100 µM		> 100 µM		> 100 µM		> 100 µM		> 100 µM		> 100 µM		> 100 µM		> 100 µM		> 100 µM
O=C(Nc1ccc(Cl)c(Cl)c1)OCCN1c2ccccc2Sc2ccccc21		> 10 µM		> 10 µM		> 10 µM		> 10 µM		> 10 µM		> 10 µM		> 10 µM		> 10 µM		> 10 µM		> 10 µM
CC(Br)C(=O)Nc1ccc(C(=O)O)c(O)c1 (centres undefined)		> 100 µM		62.8 µM		> 100 µM		> 100 µM		> 100 µM		> 100 µM		42.1 µM		> 100 µM		> 100 µM		> 100 µM
C=C1c2c(Cl)ccc(O)c2C(O)=C2C(=O)[C@]3(O)C(O)=C(C(N)=O)C(=O)[C@@H](N(C)C)[C@@H]3[C@@H](O)[C@H]12	0.888 µM	3.61 µM	0.949 µM	4.09 µM	1.76 µM	6.66 µM	1.24 µM	9.68 µM	1.66 µM	> 50 µM	1.53 µM	7.97 µM	1.15 µM	3.45 µM	2.09 µM	25.4 µM	0.347 µM	9.66 µM	1.32 µM	5.79 µM
O=C1C=CC(O)C2C1CC13SSC4(CC5C(=O)C=CC(O)C5N4C1=O)C(=O)N23 (centres undefined)		0.768 µM		1.28 µM		> 100 µM		2.26 µM		> 100 µM		0.434 µM		1.22 µM		0.571 µM		4.89 µM		0.752 µM
OCCN1CCN(CC/C=C2\c3ccccc3Sc3ccc(Cl)cc32)CC1	1.97 µM and 1.71 µM	4.18 µM and 3.17 µM	2.34 µM and 2.46 µM	5.96 µM and 6.4 µM	1.52 µM and 2.21 µM	3.34 µM and 5.45 µM	2.43 µM and 2.25 µM	7.02 µM and 7.94 µM	1.52 µM and 1.77 µM	2.94 µM and 3.68 µM	1.99 µM and 2.01 µM	4.78 µM and 4.63 µM	1.94 µM	3.8 µM	3.75 µM and 11.8 µM	14.1 µM and 24.9 µM	8.38 µM and 8.18 µM	20.7 µM and 21.1 µM	1.78 µM	4.27 µM and 3.22 µM
C=CCCCc1ccc(C(O)CCCCCCCCCCCC)o1 (centres undefined)	21.8 µM	48.2 µM	15.5 µM	29.1 µM	17.6 µM	48.3 µM	25.5 µM	55.2 µM	24.5 µM	> 100 µM	26.2 µM	58.7 µM	26 µM	72.1 µM	15.9 µM	30.4 µM			18.9 µM	38.9 µM
COc1ccc(Nc2cc(C)nc(N3CCN(c4ccnc5cc(Cl)ccc45)CC3)n2)cc1	3.34 µM	> 100 µM	3.06 µM	36.6 µM	0.284 µM	4.51 µM	4.04 µM	> 100 µM	2.34 µM	> 100 µM	1.06 µM	6.43 µM	3.17 µM	> 100 µM			1.76 µM	> 100 µM	1.75 µM	5.32 µM
